# In Sander's compilation of Henry's law constants (doi:10.1021/ac00058a023):
# Experiment: Henry solubility constant Hcp at 298.15 K (mol/(m3 Pa))
# Conditions: reference: Li and Carr (1993)
row,Henry solubility constant Hcp,Structure (SMILES)
1,0.64,CCCCCCO [1-hexanol]
2,0.84,CCCCCO [1-pentanol]
3,1.4,CCCO [1-propanol]
4,0.041,CCCCCCCC(C)=O [2-nonanone]
5,0.00091,CC(C)c1ccccc1 [(2-propyl)-benzene]
6,0.0017,c1ccccc1 [benzene]
7,0.0042,CC(C)OC(C)C [diisopropyl ether]
8,0.003,CCCOCCC [dipropyl ether]
9,0.46,CC#N [ethanenitrile]
10,1.9,CCO [ethanol]
11,0.017,CCOc1ccccc1 [ethoxybenzene]
12,0.0013,CCc1ccccc1 [ethylbenzene]
13,0.0011,Fc1ccccc1 [fluorobenzene]
14,0.0076,Ic1ccccc1 [iodobenzene]
15,0.032,COc1ccccc1 [methoxybenzene]
16,0.021,CCCCCCCC=O [octanal]
17,0.00093,CCCc1ccccc1 [propylbenzene]

row,Structure (SMILES),Henry solubility constant Hcp
1,"ClC(Cl)C(Cl)Cl [1,1,2,2-tetrachloroethane]",0.029
2,"Cc1ccccc1C [1,2-dimethylbenzene]",0.0019
3,"Cc1cc(C)cc(C)c1 [1,3,5-trimethylbenzene]",0.0013
4,"Cc1cccc(C)c1 [1,3-dimethylbenzene]",0.0013
5,"Cc1ccc(C)cc1 [1,4-dimethylbenzene]",0.0013
6,CC(C)C#N [2-methylpropanenitrile],0.094
7,Cc1cccc([N+](=O)[O-])c1 [3-nitrotoluene],0.28
8,ClCc1ccccc1 [(chloromethyl)-benzene],0.012
9,Brc1ccccc1 [bromobenzene],0.0044
10,CCCCc1ccccc1 [butylbenzene],0.00071
11,Clc1ccccc1 [chlorobenzene],0.0025
12,Cc1ccccc1 [methylbenzene],0.0016
13,CCCCC#N [pentanenitrile],0.14
14,ClC(Cl)(Cl)Cl [tetrachloromethane],0.00023
